Results taken from article PMC12373846, “Hemoglobin as a pseudoperoxidase and drug target for oxidative stress-related diseases” (Signal Transduction and Targeted Therapy, 2025).
Structures can show the parent of a compound that is named as a salt. Where two headings read alike, the source gives them in different places.

Columns and labels:
Hb = molecular target: T1, Hb (Homo sapiens, UniProt P68871); assay: ROS-Glo H2O2 assay with Hb; format: biochemical
T1 construct: purchased Sigma-Aldrich H7379
Procedure: Hb (Sigma‒Aldrich, H7379), H2O2 (Sigma‒Aldrich, H1009), and Amplex Red reagents (Invitrogen, A12222) were obtained for the study. A 4 μM H2O2 solution was prepared in 50 mM sodium phosphate buffer (pH 7.2). Then, 49 μl of this mixture was mixed with 1 μl of the test compound in DMSO or distilled water. The mixture was combined with an assay mixture of Amplex Red reagent (20 mM stock to 0.1 mM) and HRP (200 U/ml stock to 0.2 U/ml) and added to the wells at 50 μl/well. After a 60-min incubation at 37 °C, resorufin production was quantified via a microplate fluorescence reader (SpectraMax iD5, Molecular Devices) at ex/em = 535/580 nm. […] For the ROS-Glo assay, the H2O2 substrate solution and ROS-Glo detection solution were prepared according to the manufacturer’s instructions. 10 μM H2O2 and drugs were prepared as in the Amplex Red assay, with HRP, Hb, CAT, or GPx added as needed. The mixture was added to the wells at 100 μl/well and incubated for 60 min at 37 °C. H2O2 substrate solution was added, and the mixture was incubated at room temperature for 30 min. After the H2O2 substrate solution was added and incubated at room temperature for 30 min, the ROS-Glo detection solution was added, and the mixture was incubated for 15 min. Luminescence was measured via iD5 microplate readers. […] The U/ml was calculated on the basis of the amount of H2O2 reduced by Hb during the reaction, using μg/ml and U/mg.
To evaluate the extent of peroxidase function facilitation by HTPEB (1 μM) and KDS12025 (1 μM) in HRP (0.2 U/ml) and Hb (10 μg/ml), we used the ROS-Glo assay over 30 and 60 min. The fold change was calculated by dividing the delta values during the 30-min reaction for the vehicle over drug conditions.
To assess enzyme activity, the amount of H2O2 consumed over a specific time was quantified alongside a standard curve. For the peroxidase function of Hb, Hb was administered at doses ranging from 0.01 to 112 U/ml and preincubated with H2O2 and either DMSO, HTPEB (1 μM), or KDS12025 (1 μM) at 37 °C for 30 min. The remaining H2O2 was measured via the ROS-Glo assay and normalized against conditions without Hb. The dose‒response curve, EC50, and EC20 for H2O2 decomposition were calculated and determined by fitting the data with GraphPad Prism software. The fitting method had no special handling of outliers, and least squares regression with confidence intervals of the parameters was 95%.

HRP = molecular target: T2, HRP (Armoracia rusticana, UniProt P00433); assay: H2O2 assay with HRP (HRP-EC50); format: biochemical, horseradish
T2 sequence (P00433 31-353): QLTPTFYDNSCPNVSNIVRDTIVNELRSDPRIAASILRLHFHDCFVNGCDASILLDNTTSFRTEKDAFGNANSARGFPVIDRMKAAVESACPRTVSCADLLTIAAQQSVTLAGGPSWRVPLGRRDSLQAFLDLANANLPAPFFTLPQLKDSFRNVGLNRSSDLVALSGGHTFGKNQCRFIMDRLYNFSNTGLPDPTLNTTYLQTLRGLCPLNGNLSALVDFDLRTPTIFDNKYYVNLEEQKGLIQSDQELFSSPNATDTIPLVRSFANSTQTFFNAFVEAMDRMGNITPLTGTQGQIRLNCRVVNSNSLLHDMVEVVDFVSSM
Procedure: Hb (Sigma‒Aldrich, H7379), H2O2 (Sigma‒Aldrich, H1009), and Amplex Red reagents (Invitrogen, A12222) were obtained for the study. A 4 μM H2O2 solution was prepared in 50 mM sodium phosphate buffer (pH 7.2). Then, 49 μl of this mixture was mixed with 1 μl of the test compound in DMSO or distilled water. The mixture was combined with an assay mixture of Amplex Red reagent (20 mM stock to 0.1 mM) and HRP (200 U/ml stock to 0.2 U/ml) and added to the wells at 50 μl/well. After a 60-min incubation at 37 °C, resorufin production was quantified via a microplate fluorescence reader (SpectraMax iD5, Molecular Devices) at ex/em = 535/580 nm. The H2O2-decomposing activity was estimated via the following equation: (sample fluorescence-blank fluorescence)/(control […]-blank fluorescence) × 100. For the ROS-Glo assay, the H2O2 substrate solution and ROS-Glo detection solution were prepared according to the manufacturer’s instructions. 10 μM H2O2 and drugs were prepared as in the Amplex Red assay, with HRP, Hb, CAT, or GPx added as needed. The mixture was added to the wells at 100 μl/well and incubated for 60 min at 37 °C. H2O2 substrate solution was added, and the mixture was incubated at room temperature for 30 min. After the H2O2 substrate solution was added and incubated at room temperature for 30 min, the ROS-Glo detection solution was added, and the mixture was incubated for 15 min. Luminescence was measured via iD5 microplate readers. The H2O2-decomposing activity was estimated via the following equation: (sample luminescence-blank luminescence)/(control luminescence-blank luminescence) × 100. The U/ml was calculated on the basis of the amount of H2O2 reduced by Hb during the reaction, using μg/ml and U/mg.

[1] = test system: primary cultured hippocampal astrocytes; assay: oROS-G intracellular H2O2 imaging; format: cell-based, mouse; conditions: Fig. 3j
Procedure: Primary hippocampal astrocytes were obtained from postnatal day 0‒2 (P0‒2) C57BL/6 mice as previously described.[73] The hippocampal tissue was dissected free of meninges, minced, and dissociated into a single-cell suspension by trituration. The cells were grown in Dulbecco’s modified Eagle’s medium supplemented with D-glucose (4500 mg/L), L-glutamine, sodium pyruvate (110 mg/L), 10% heat-inactivated horse serum, 10% heat-inactivated fetal bovine serum, and 1000 U/ml penicillin‒streptomycin. The cells were maintained at 37 °C in a humidified atmosphere containing 5% CO2.
H2O2 specific, highly sensitive, and fast on-and-off kinetics, a genetically encoded oROS-G plasmid kindly provided by Dr. Andre Berndt. oROS-G was cloned under the GFAP104 promoter and delivered into primary cultured hippocampal astrocytes via the NeoN^TM transfection system (Invitrogen). The cells were treated with various concentrations of Aβ (1 to 10 μM) or 6-OHDA (Tocris, 2547; 10 to 50 μM) to induce aberrant H2O2. For subsequent experiments, 5 μM Aβ and 30 μM 6-OHDA were selected on the basis of initial dose‒response studies. KDS12025 (10 μM) and sodium pyruvate (1 mM) were applied as indicated in each experiment. For live-cell imaging, astrocytes were maintained in a humidified chamber at 37 °C with 5% […] during imaging to preserve physiological conditions. Changes in the fluorescence of oROS-G were recorded via an A1 Nikon confocal microscope equipped with a temperature- and humidity-controlled stage. Images were captured every 20 min for up to 40 h (20for the 6-OHDA experiments) via the NIS-Elements software (Nikon, Japan) for time-lapse imaging. The excitation and emission wavelengths for oROS-G fluorescence were set to 485 nm and 538 nm, respectively. Endpoint fluorescence measurements were also collected for KDS12025 dose-dependent experiments. To analyze the fluorescence intensity, individual regions of interest (ROIs) were manually selected for each astrocyte via NIS-Elements software (Nikon, Japan). The fluorescence intensity changes were normalized to the baseline values (ΔF/F0) to quantify the H2O2 dynamics. To determine the EC50 of KDS12025, endpoint fluorescence intensity data from oROS-G experiments were normalized to those of the Aβ+vehicle control group. The normalized data were analyzed via GraphPad Prism software to fit a four-parameter logistic curve, yielding the EC50 value for the H2O2-decomposing activity of KDS12025.

PAMPA BBB permeability = format: in vitro ADME; conditions: for BCS code: CNS +/- classification: 50 μM, 4 h; for Papp at 4 h, 50 μM: PAMPA, pH 7.4, 50 μM
Procedure: A parallel artificial membrane permeability assay (PAMPA)^70 was performed to validate the blood-brain barrier permeability of KDS12025. The procedure began by preparing a donor solution of the compound in a pH 7.4 donor buffer. This solution was added to the wells of a deep well plate, followed by the addition of a high-sensitivity UV plate filled with donor buffer to serve as the blank sample. An initial sample for the UV plate was taken to establish a baseline reading. The PAMPA sandwich was then assembled by adding the donor plate mixture to the donor plate well, followed by placing a BBB-lipid coated membrane on top and an acceptor plate filled with acceptor buffer. This setup was incubated at 25 °C for a specific duration to allow diffusion. Post-incubation, a sample from the acceptor plate was taken, and the UV absorbance was measured to determine the permeated amount of the test compound. The permeability was then calculated using the PAMPA explorer program, considering the initial donor concentration and the acceptor's concentration after incubation.

[2] = Tables S2, S3, read-out: HRP-EC50
[3] = Tables S2, S3, read-out: HB-EC50
[4] = read-out: BCS code: permeability classification

T1 sequence (P68871 2-147 limits assumed): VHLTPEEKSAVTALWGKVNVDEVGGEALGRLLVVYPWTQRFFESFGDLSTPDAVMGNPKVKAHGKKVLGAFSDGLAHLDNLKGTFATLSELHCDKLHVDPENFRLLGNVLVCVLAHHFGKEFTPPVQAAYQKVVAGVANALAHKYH
T1 sequence (P69905 2-142 partner limits assumed): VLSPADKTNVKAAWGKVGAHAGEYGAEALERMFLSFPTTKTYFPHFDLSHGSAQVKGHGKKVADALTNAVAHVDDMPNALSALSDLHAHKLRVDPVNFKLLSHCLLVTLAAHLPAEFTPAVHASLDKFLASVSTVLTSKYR

Row | SMILES | EC50 (HRP; [2]) [nM] | EC50 (Hb; [3]) [nM] | further results
1 | NCCc1ccc(C(F)(F)F)cc1 [2-(4-(Trifluoromethyl)phenyl)ethylamine, reference compound] | – | – | EC50 (Hb): > 10000 nM; EC50 (HRP): > 10000 nM
2 | NCCc1cc(O)c(O)cc1O [6-OHDA, 6-hydroxydopamine, reference compound] | – | – | oROS-G H2O2 level ([1]; 6-OHDA 10μM): 153.8±24.7; oROS-G H2O2 level ([1]; 6-OHDA 30μM): 211.9±18.2; oROS-G H2O2 level ([1]; 6-OHDA 50μM): 271.2±14.8
3 | FC(F)(F)c1ccc(CCNc2ccccc2)cc1 [7b, N-(4-(trifluoromethyl)phenethyl)aniline] | > 10000 | – | –
4 | Oc1ccc(NCCc2ccc(C(F)(F)F)cc2)cc1 [7c, 4-((4-(trifluoromethyl)phenethyl)amino)phenol] | > 10000 | 5090 | –
5 | COc1ccc(NCCc2ccc(C(F)(F)F)cc2)cc1 [7d, 4-methoxy-N-(4-(trifluoromethyl)phenethyl)aniline] | 13300 | 23400 | –
6 | O=C(O)c1cccc(NCCc2ccc(C(F)(F)F)cc2)c1 [7e, 3-((4-(trifluoromethyl)phenethyl)amino)benzoic acid] | > 10000 | > 10000 | –
7 | O=C(O)c1ccc(NCCc2ccc(C(F)(F)F)cc2)cc1 [7f, 4-((4-(trifluoromethyl)phenethyl)amino)benzoic acid] | 22100 | > 10000 | –
8 | CNc1ccc(NCCc2cccc(OC)c2)cc1 [8d, N^1-(3-methoxyphenethyl)-N^4-methylbenzene-1,4-diamine hydrochloride salt] | 516 | 85.5 | –
9 | CNc1ccc(NCCc2ccc(OC)cc2)cc1 [8e, N^1-(4-methoxyphenethyl)-N^4-methylbenzene-1,4-diamine] | 790 | 69.5 | –
10 | CNc1ccc(NCCc2ccccc2)cc1 [8f, N^1-methyl-N^4-phenethylbenzene-1,4-diamine hydrochloride salt] | 897 | 78.1 | –
11 | CNc1ccc(NCCc2cccc(C(F)(F)F)c2)cc1 [8g, N^1-methyl-N^4-(3-(trifluoromethyl)phenethyl)benzene-1,4-diamine hydrochloride salt] | 378 | 88.4 | –
12 | CNc1ccc(NCCc2ccccc2C(F)(F)F)cc1 [8h, N^1-methyl-N^4-(2-(trifluoromethyl)phenethyl)benzene-1,4-diamine hydrochloride salt] | 500 | 69.1 | –
13 | Nc1ccc(O)c(C(=O)O)c1 [Mesalazine, reference compound] | 3600 | 213 | –
14 | CC(=O)[C@H]1CC[C@H]2[C@@H]3CCC4=CC(=O)CC[C@]4(C)[C@H]3CC[C@]12C [Progesterone] | – | – | BCS code: CNS +/- classification (PAMPA BBB permeability): + (> 10); Papp at 4 h, 50 μM (PAMPA BBB permeability; U.V, read-out: Pe (PAMPA BBB permeability)): 42.2 ×10⁻⁶ cm/s; Papp at 4 h, 50 μM (PAMPA BBB permeability; [4]): > 0.4 ×10⁻⁶ cm/s
15 | CNC(=C[N+](=O)[O-])NCCSCc1ccc(CN(C)C)o1 [Ranitidine] | – | – | BCS code: CNS +/- classification (PAMPA BBB permeability): - (< 10); Papp at 4 h, 50 μM (PAMPA BBB permeability; [4]): < 0.4 ×10⁻⁶ cm/s
16 | O=C(O)c1ccccc1O [Salicylic Acid, reference compound] | > 10000 | > 10000 | –
17 | Cc1ccc(O)c(C(=O)O)c1 [p-Cresotic acid, reference compound] | > 10000 | > 10000 | –
